Experimental data reported in ChEMBL document CHEMBL3785006, “Discovery of 2-Indole-acylsulfonamide Myeloid Cell Leukemia 1 (Mcl-1) Inhibitors Using Fragment-Based Methods” (J Med Chem, 2016).

What was measured:
[1] = biological target: T1, Induced myeloid leukemia cell differentiation protein Mcl-1 (Homo sapiens, UniProt Q07820)
[2] = biological target: T1, Induced myeloid leukemia cell differentiation protein Mcl-1; remark: listed apart in the source
Bcl-2-like protein 1 = Bcl-2-like protein 1 (Homo sapiens, UniProt Q07817)
[3] = biological target: T1, Induced myeloid leukemia cell differentiation protein Mcl-1; remark: listed apart in the source

T1 sequence (Q07820 whole entry): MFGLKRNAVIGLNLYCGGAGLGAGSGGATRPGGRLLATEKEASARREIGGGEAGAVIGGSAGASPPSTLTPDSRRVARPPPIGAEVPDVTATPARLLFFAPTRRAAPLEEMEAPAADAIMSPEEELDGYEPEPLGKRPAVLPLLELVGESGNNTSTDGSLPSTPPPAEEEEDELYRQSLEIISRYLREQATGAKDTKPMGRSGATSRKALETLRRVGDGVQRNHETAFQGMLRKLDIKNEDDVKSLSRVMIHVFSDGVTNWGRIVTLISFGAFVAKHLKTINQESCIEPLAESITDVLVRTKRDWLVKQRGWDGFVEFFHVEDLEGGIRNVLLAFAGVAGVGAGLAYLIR
Sequence of Bcl-2-like protein 1 (Q07817 whole entry): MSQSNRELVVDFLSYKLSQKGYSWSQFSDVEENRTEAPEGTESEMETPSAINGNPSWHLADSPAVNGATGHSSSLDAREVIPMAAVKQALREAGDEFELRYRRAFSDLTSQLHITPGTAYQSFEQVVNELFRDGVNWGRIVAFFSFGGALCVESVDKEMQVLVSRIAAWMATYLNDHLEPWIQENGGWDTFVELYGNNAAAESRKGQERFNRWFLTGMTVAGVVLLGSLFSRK

Compound	Ki [1]	further results
Cc1cc(OCCCc2c(C(=O)NS(=O)(=O)CCNC(=O)c3cc(-c4ccccc4O)n[nH]3)[nH]c3cc(Cl)ccc23)cc(C)c1Cl	308 nM	
Cc1cc(OCCCc2c(C(=O)NS(=O)(=O)c3ccc(C(=O)O)o3)[nH]c3c(-c4c(C)nn(C)c4C)c(Cl)ccc23)cc(C)c1Cl		IC50 [2]: 2.1 nM; Ki [2]: 0.78 nM
Cc1cc(OCCCc2c(C(=O)NS(=O)(=O)CCNS(=O)(=O)C3CCCCC3)[nH]c3ccccc23)cc(C)c1Cl	251 nM	
Cc1cc(OCCCc2c(C(=O)NS(=O)(=O)CCNC(=O)[C@@H]3Cc4ccccc4N3)[nH]c3ccccc23)cc(C)c1Cl	193 nM	
Cc1cc(OCCCc2c(C(=O)NS(=O)(=O)CCNC(=O)c3ccc4[nH]ccc4c3)[nH]c3ccccc23)cc(C)c1Cl	269 nM	
Cc1cc(OCCCc2c(C(=O)NS(=O)(=O)CCNC(=O)c3ccc4cc[nH]c4c3)[nH]c3ccccc23)cc(C)c1Cl	278 nM	
CC(=O)NCCS(=O)(=O)NC(=O)c1[nH]c2cc(Cl)ccc2c1CCCOc1cc(C)c(Cl)c(C)c1	209 nM	
CS(=O)(=O)NC(=O)c1[nH]c2cc(Cl)ccc2c1CCCOc1cccc2ccccc12	231 nM	
CC(=O)NCCS(=O)(=O)NC(=O)c1[nH]c2ccccc2c1CCCOc1cc(C)c(Cl)c(C)c1	656 nM	
Cc1cc(OCCCc2c(C(=O)NS(C)(=O)=O)[nH]c3ccccc23)cc(C)c1Cl	655 nM	
Cc1cc(OCCCc2c(C(=O)NS(=O)(=O)CCNC(=O)c3ccccc3)[nH]c3ccccc23)cc(C)c1Cl	430 nM	
Cc1cc(OCCCc2c(C(=O)NS(=O)(=O)CCNC(=O)CC3CCCCC3)[nH]c3ccccc23)cc(C)c1Cl	1100 nM	
Cc1cc(OCCCc2c(C(=O)NS(=O)(=O)CCNC(=O)Cc3cn(C)c4ccccc34)[nH]c3ccccc23)cc(C)c1Cl	298 nM	
Cc1cc(OCCCc2c(C(=O)NS(=O)(=O)CCCNC3CCCCC3)[nH]c3ccccc23)cc(C)c1Cl	1020 nM	
Cc1cc(OCCCc2c(C(=O)NS(=O)(=O)CCNC(=O)c3ccccc3F)[nH]c3ccccc23)cc(C)c1Cl	336 nM	
Cc1cc(OCCCc2c(C(=O)NS(=O)(=O)CCNC(=O)c3cc4ccccc4o3)[nH]c3ccccc23)cc(C)c1Cl	311 nM	
Cc1cc(OCCCc2c(C(=O)NS(=O)(=O)CCOc3ccccc3)[nH]c3ccccc23)cc(C)c1Cl	322 nM	
Cc1cc(OCCCc2c(C(=O)NS(C)(=O)=O)[nH]c3cc(Cl)ccc23)cc(C)c1Cl	209 nM	
Cc1cc(OCCCc2c(C(=O)NS(=O)(=O)c3ccncc3)[nH]c3ccccc23)cc(C)c1Cl	335 nM	
Cc1cc(OCCCc2c(C(=O)NS(=O)(=O)c3ccccc3)[nH]c3c(-c4cccnc4)cccc23)cc(C)c1Cl	202 nM	
O=C(NS(=O)(=O)CCNC(=O)C1CCCCC1)c1[nH]c2cc(Cl)ccc2c1CCCOc1cccc2ccccc12	374 nM	
Cc1cc(OCCCc2c(C(=O)NS(=O)(=O)CCNC(=O)c3ccc[nH]3)[nH]c3cc(Cl)ccc23)cc(C)c1Cl	782 nM	
Cc1cc(OCCCc2c(C(=O)NS(=O)(=O)CCNC(=O)c3cn(C)c4ccccc34)[nH]c3ccccc23)cc(C)c1Cl	432 nM	

Further lines, with some results ahead:

Ki [1]	Compound	further results
55 nM	Cc1cc(OCCCc2c(C(=O)NS(=O)(=O)CCNC(=O)C3CCCCC3)[nH]c3cc(Cl)ccc23)cc(C)c1Cl	
79 nM	Cc1cc(OCCCc2c(C(=O)NS(=O)(=O)CCNC(=O)c3cccc(C(F)(F)F)c3)[nH]c3cc(Cl)ccc23)cc(C)c1Cl	
10 nM	Cc1cc(OCCCc2c(C(=O)NS(=O)(=O)CCNC(=O)CC(C)C)[nH]c3cc(Cl)ccc23)cc(C)c1Cl	
< 10 nM	Cc1cc(OCCCc2c(C(=O)NS(=O)(=O)c3cccc(CNC(=O)c4cccc(C(F)(F)F)c4)c3)[nH]c3c(-c4c(C)nn(C)c4C)c(Cl)ccc23)cc(C)c1Cl	Ki [2]: 7 nM; Ki (Bcl-2-like protein 1): 12900 nM; Ki [3]: 78 nM
117 nM	Cc1cc(OCCCc2c(C(=O)NS(=O)(=O)CCNC(=O)c3ccc(F)cc3)[nH]c3ccccc23)cc(C)c1Cl	
66 nM	Cc1cc(OCCCc2c(C(=O)NS(=O)(=O)CCNC(=O)C(C)C)[nH]c3cc(Cl)ccc23)cc(C)c1Cl	
19 nM	Cc1cc(OCCCc2c(C(=O)NS(=O)(=O)CCNC(=O)c3ccoc3)[nH]c3cc(Cl)ccc23)cc(C)c1Cl	
148 nM	Cc1cc(OCCCc2c(C(=O)NS(=O)(=O)CCNC(=O)c3cccn3Cc3ccccc3)[nH]c3ccccc23)cc(C)c1Cl	
139 nM	Cc1cc(OCCCc2c(C(=O)NS(=O)(=O)CCNC(=O)c3cccn3-c3ccccc3)[nH]c3ccccc23)cc(C)c1Cl	
46 nM	Cc1cc(OCCCc2c(C(=O)NS(=O)(=O)CCNC(=O)[C@@H]3Cc4ccccc4N3)[nH]c3cc(Cl)ccc23)cc(C)c1Cl	
36 nM	Cc1ccncc1-c1cccc2c(CCCOc3cc(C)c(Cl)c(C)c3)c(C(=O)NS(=O)(=O)c3ccccc3)[nH]c12	
14 nM	Cc1cc(OCCCc2c(C(=O)NS(=O)(=O)c3ccccc3)[nH]c3c(-c4cccnc4C)cccc23)cc(C)c1Cl	
53 nM	Cc1cc(OCCCc2c(C(=O)NS(=O)(=O)CCNC(=O)c3ccco3)[nH]c3cc(Cl)ccc23)cc(C)c1Cl	
< 10 nM	Cc1cc(OCCCc2c(C(=O)NS(=O)(=O)c3ccccc3)[nH]c3c(-c4c(C)n[nH]c4C)cccc23)cc(C)c1Cl	Ki [3]: 517 nM
< 10 nM	Cc1cc(OCCCc2c(C(=O)NS(=O)(=O)c3ccccc3)[nH]c3c(-c4c(C)n[nH]c4C)c(Cl)ccc23)cc(C)c1Cl	Ki [3]: 147 nM
87 nM	CCC(=O)NCCS(=O)(=O)NC(=O)c1[nH]c2cc(Cl)ccc2c1CCCOc1cc(C)c(Cl)c(C)c1	
28 nM	Cc1cc(OCCCc2c(C(=O)NS(=O)(=O)CCNC(=O)[C@H]3Cc4ccccc4N3)[nH]c3cc(Cl)ccc23)cc(C)c1Cl	
100 nM	Cc1cc(OCCCc2c(C(=O)NS(=O)(=O)CCNC(=O)c3cccc(F)c3)[nH]c3ccccc23)cc(C)c1Cl	
< 10 nM	Cc1cc(OCCCc2c(C(=O)NS(=O)(=O)c3ccccc3)[nH]c3c(-c4cccnc4C)c(Cl)ccc23)cc(C)c1Cl	Ki [2]: 18 nM; Ki [3]: 146 nM
118 nM	Cc1cc(OCCCc2c(C(=O)NS(=O)(=O)CCNC(=O)C3CCCCC3)[nH]c3ccccc23)cc(C)c1Cl	
116 nM	Cc1cc(OCCCc2c(C(=O)NS(=O)(=O)CCNC(=O)C(F)(F)F)[nH]c3cc(Cl)ccc23)cc(C)c1Cl	
< 10 nM	Cc1cc(OCCCc2c(C(=O)NS(=O)(=O)c3ccccc3)[nH]c3c(-c4c(C)nn(C)c4C)c(Cl)ccc23)cc(C)c1Cl	Ki [2]: 17 nM; Ki [3]: 64 nM
18 nM	Cc1cc(OCCCc2c(C(=O)NS(=O)(=O)CCNC(=O)c3ccccc3C(F)(F)F)[nH]c3cc(Cl)ccc23)cc(C)c1Cl	
90 nM	Cc1cc(OCCCc2c(C(=O)NS(=O)(=O)CCNC(=O)c3cccn3C)[nH]c3ccccc23)cc(C)c1Cl	
16 nM	CCC(CC)C(=O)NCCS(=O)(=O)NC(=O)c1[nH]c2cc(Cl)ccc2c1CCCOc1cc(C)c(Cl)c(C)c1	
119 nM	Cc1cc(OCCCc2c(C(=O)NS(=O)(=O)CCNC(=O)c3ccc(C(F)(F)F)cc3)[nH]c3cc(Cl)ccc23)cc(C)c1Cl	
116 nM	Cc1cc(OCCCc2c(C(=O)NS(=O)(=O)c3ccco3)[nH]c3cc(Cl)ccc23)cc(C)c1Cl	
91 nM	Cc1cc(OCCCc2c(C(=O)NS(=O)(=O)c3ccccc3)[nH]c3cc(Cl)ccc23)cc(C)c1Cl	
< 10 nM	Cc1cc(OCCCc2c(C(=O)NS(=O)(=O)c3cccc(CNC(=O)c4ccccc4C(F)(F)F)c3)[nH]c3c(-c4c(C)nn(C)c4C)c(Cl)ccc23)cc(C)c1Cl	Ki [2]: 5 nM; Ki (Bcl-2-like protein 1): 4470 nM; Ki [3]: 80 nM
